The target of experiment [1] is T1, Full-length inactive AKT1 (Homo sapiens (Human), UniProt P31749). Put plainly: Thermal Shift Assay (protein-ligand binding). Conditions: Kd at 25° C. calculated using constant ligand binding enthalpy −15 kcal/mol; 15 μM compound, ANS dye. How it is done:
Binding analysis. Protein-ligand binding was identified with the thermal shift assay which is based on the ligand-induced stabilization of the protein tertiary structure. The thermal stability of the ligand-Akt1 complex was assessed by subjecting the complex to a set temperature gradient and by comparison of the meltion temperature of the Akt1-ligand complex with the melting temperature of the protein alone. Protein unfolding was monitored by the fluorescence readout of an environmentally sensitive fluorescent dye, 1-anilinonaphthalene-8-sulfonic acid (ANS). […] The PCR plate was placed into a RT-PCR instrument and a temperature gradient was performed, increasing from 27 to 80° C., at 1° C./30 sec heat rate with a dwell time of 20 sec. The change in ANS fluorescence was measured using the filter set of 475 nm/525 nm excitation/emission.

A further experiment concerns Phospho-Akt (S473). Put plainly: Cell ELISA Assay, Phospho-Akt detection. The class given is cell-based. Conditions: cells treated for 1 hour, cell line not stated. As for the experimental part:
Phospho-Akt detection analysis. Phospho-Akt (S473) was detected using cell ELISA. Briefly, cells were plated in a 96-well plate at 7,000-10,000 cells per well, cultured for 2-3 days in complete growth medium, and then treated with various drugs or combinations of drugs for 1 hour. The cells were fixed with ice-cold methanol, and washed with TBS supplemented with 1% H2O2. Phospho-Akt (S473) was probed with corresponding rabbit antibody as a primary antibody, and horseradish peroxidase conjugated goat anti-rabbit IgG. After treatment with SuperSignal® ELISA for 15 minutes, the detection was performed using a luminometer. Data were normalized to untreated controls and analyzed with Microsoft Excel.

The test system of the next experiment is cells. In words: Cell proliferation / viability GI50 (MTS assay or ATP quantitation assay). The class given is cell-based. Conditions: 72 hours treatment; cell line and assay (MTS or ATP quantitation) not stated. How it is done: Cell proliferation analysis. Cell survival was determined by the MTS assay. Briefly, cells were plated in a 96-well plate at 2,000-10,000 cells per well, cultured for 24 hours in complete growth medium, and then treated with various drugs and drug combinations for 72 hours. MTS was added and incubated for 4 hour, followed by assessment of cell viability using the microplate reader at 570 nm. Data were normalized to untreated controls and analyzed with Microsoft Excel.
Cell viability analysis. Cell viability was determined by the ATP quantitation assay. Briefly, cells were plated in a 96-well plate at 2,000-10,000 cells per well, cultured for 24 hours in complete growth medium, and then treated with various drugs or combination of drugs for 72 hours. CellTiter-Glo® reagent was added and incubated at room temperature for 10 minutes, followed by assessment of cell viability using a luminometer. Data were normalized to untreated controls and analyzed with Microsoft Excel.

The target in experiment [2] is T1, Full-length inactive AKT1. Put plainly: Inactive Akt Alpha Screen Assay. To be noted: 8 nM inactive Akt1 activated by PDK1 and MAPKAPK2, lipid vesicles, 50 μM ATP, biotinylated crosstide; read-out: Akt1 biochemical assay IC50 AlphaScreen crosstide. As for the experimental part:
AKT1 activity was assayed using the GSK3-derived biotinylated peptide substrate, crosstide (biotin-[…]), and AlphaScreen™ (Amplified Luminescent Proximity Homogeneous Assay) technology. AKT1 activation was achieved by the addition of the activating kinases PDK1 and MAPKAPK2, lipid vesicles, and ATP. The extent of peptide phosphorylation was determined using a phospho-AKT substrate antibody and acceptor beads conjugated to Protein A and donor beads conjugated to streptavidin that bind to the biotin on the peptide. Excitation of the donor beads converted ambient oxygen to excited singlet oxygen which, when in close proximity to acceptor beads, reacted with acceptor beads resulting in signal amplification.
After a 20 minute pre-incubation at room temperature, the kinase reaction was initiated by the addition of 5 μL of an activation mixture diluted in assay buffer containing biotinylated crosstide, PDK1, MAPKAPK2, DOPS/DOPC, PtdIns(3,4,5)P3, and ATP for final concentrations of 60 nM biotinylated crosstide, 0.1 nM PDK1, 0.7 nM MK2, 5.5 μM DOPS, 5.5 μM DOPC, 0.5 μM PtdIns(3,4,5)P3, and 50 μM ATP. The plates were incubated for 30 minutes at room temperature, and then stopped in the dark by the addition of 10 μL stop/detection mixture prepared in assay buffer containing EDTA, AlphaScreen™ Streptavidin Donor and Protein A Acceptor beads, and phospho-AKT substrate antibody for final concentrations of 10 mM EDTA, 500 ng/well of both AlphaScreen™ Streptavidin Donor beads and Protein A Acceptor beads, and phospho-AKT substrate antibody at a final dilution of 1:350. Assay plates were incubated for 90 minutes at room temperature in the dark, and the plates were read on a Perkin Elmer Envision Multilabel plate reader (excitation wavelength: 640 nm, emission wavelength: 570 nm). […]

These results are taken from patent US8609688B2, “Substituted imidazopyridinyl-aminopyridine compounds” (ArQule, Inc., priority 2011, dated 2013).

T1 sequence (P31749 whole entry): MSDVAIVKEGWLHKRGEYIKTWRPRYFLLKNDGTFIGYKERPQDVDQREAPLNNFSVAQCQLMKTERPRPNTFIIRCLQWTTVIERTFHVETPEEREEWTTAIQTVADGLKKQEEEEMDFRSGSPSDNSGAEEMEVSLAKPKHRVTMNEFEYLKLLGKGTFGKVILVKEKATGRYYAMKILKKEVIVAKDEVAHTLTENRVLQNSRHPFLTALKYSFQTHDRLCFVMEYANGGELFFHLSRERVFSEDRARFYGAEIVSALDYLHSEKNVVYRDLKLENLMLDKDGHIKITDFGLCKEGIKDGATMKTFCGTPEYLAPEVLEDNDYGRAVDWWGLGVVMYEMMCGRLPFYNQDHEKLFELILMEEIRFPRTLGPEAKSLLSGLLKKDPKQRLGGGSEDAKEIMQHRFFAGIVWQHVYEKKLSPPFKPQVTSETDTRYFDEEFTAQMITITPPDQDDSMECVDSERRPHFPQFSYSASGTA

For `CCC(=O)N1CCN(c2cccc(-c3ccc4nc(-c5cccnc5N)n(-c5ccc(C6(N)CCC6)cc5)c4n3)c2)CC1` [Cmpd 13, 1-(4-(3-(3-(4-(1-aminocyclobutyl)phenyl)-2-(2-aminopyridin-3-yl)-3H-imidazo[4,5-b]pyridin-5-yl)phenyl)piperazin-1-yl)propan-1-one], the Kd in experiment [1] is 1.4 nM. Further, the values for the IC50 (with Phospho-Akt (S473); in experiment [2]) were 9 nM and 2.15 nM, respectively. In the experiment on cells, the GI50 was found to be 335000 nM.
Regarding `Nc1ncccc1-c1nc2ccc(-c3cccc(N4CCN(C(=O)C5CC5)CC4)c3)nc2n1-c1ccc(C2(N)CCC2)cc1` [Cmpd 14, (4-(3-(3-(4-(1-aminocyclobutyl)phenyl)-2-(2-aminopyridin-3-yl)-3H-imidazo[4,5-b]pyridin-5-yl)phenyl)piperazin-1-yl)(cyclopropyl)methanone], the Kd in experiment [1] is 1.1 nM. Further, the figures for the IC50 (in the experiment on Phospho-Akt (S473); in experiment [2]) were 11 nM and 1.84 nM, respectively. Also, the GI50 with cells was found to be 296000 nM.
